Target: T1, RNase L (Homo sapiens, UniProt Q05823)
T1 sequence (Q05823 1-741): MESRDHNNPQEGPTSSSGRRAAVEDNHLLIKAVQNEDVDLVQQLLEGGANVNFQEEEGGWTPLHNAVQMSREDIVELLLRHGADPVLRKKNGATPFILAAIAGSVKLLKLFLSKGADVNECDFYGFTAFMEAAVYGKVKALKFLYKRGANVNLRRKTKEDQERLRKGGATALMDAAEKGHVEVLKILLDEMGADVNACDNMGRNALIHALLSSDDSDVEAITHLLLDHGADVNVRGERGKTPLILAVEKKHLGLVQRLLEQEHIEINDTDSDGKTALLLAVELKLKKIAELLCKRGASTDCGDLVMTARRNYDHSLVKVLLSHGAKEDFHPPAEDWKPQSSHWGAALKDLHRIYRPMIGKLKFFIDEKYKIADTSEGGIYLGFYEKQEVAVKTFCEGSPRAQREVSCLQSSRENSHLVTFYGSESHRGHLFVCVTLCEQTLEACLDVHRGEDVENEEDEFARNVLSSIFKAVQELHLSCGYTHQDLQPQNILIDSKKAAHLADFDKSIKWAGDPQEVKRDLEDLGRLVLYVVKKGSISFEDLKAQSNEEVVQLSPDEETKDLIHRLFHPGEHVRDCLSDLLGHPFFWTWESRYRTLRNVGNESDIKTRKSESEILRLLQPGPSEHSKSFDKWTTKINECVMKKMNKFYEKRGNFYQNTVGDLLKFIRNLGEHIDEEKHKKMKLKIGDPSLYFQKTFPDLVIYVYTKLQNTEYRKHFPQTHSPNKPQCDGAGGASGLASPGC
Assay: FRET RNA cleavage assay
Format: biochemical

- IC50: ~30 µM
SMILES: COc1cc(/C=C/C(=O)CC(=O)/C=C/c2ccc(O)c(OC)c2)ccc1O [curcumin]
